From patent publication EP1222194B1, “7-ACYLAMINO-3-HETEROARYLTHIO-3-CEPHEM CARBOXYLIC ACID ANTIBIOTICS AND PRODRUGS THEREOF” (priority 1999, dated 2001)
In brackets after ≈: the same amount, converted by molar mass.

What was measured:
[1] = Serum binding determination by ultrafiltration and HPLC; type: in vitro ADME; conditions: % of compound bound to serum as determined by HPLC; human serum
Protocol: The more accurate measurement of binding of selected cephalosporin compounds was performed using HPLC as described below. […] Serum is placed in a shaking water bath preheated to 37 ± 2 °C for 5 to 10 minutes to heat serum to 37 °C. Serum pH is measured and recorded, while serum is 37 °C using pH paper. Measurements are taken twice, 3 minutes apart. […] After blowing for several minutes, serum is heated to 37 °C and measurements are taken twice, 3 minutes apart using pH paper to determine the pH. Store at 4 °C. The serum is stable for 7 days. Always check the pH before each use. • 2. Before any centrifugation, the centrifuge temperature must be adjusted to 25 ± 2 °C. Preheat the centrifuge by spinning for 45 minutes at the same speed to be used in the assay (1900 g) with two tubes of water in the rotor and the temperature set to 25 °C. When the centrifuge stops immediately check the temperature of the tubes of water with a calibrated thermometer. The temperature of the tubes of water must be 25 ± 2 °C. […] Continue spinning and measuring the temperature and adjusting the setting until the temperature is 25 ± 2 °C. • 3. Prepare blank ultrafiltrate by pipetting blank pH 7.4 serum into an Amicon Centrifree Micropartition devices, centrifuge: fixed angle rotor, 1900 g, 25 °C for 20 minutes. Heat ultrafiltrate in a shaking water bath preheated to 37 °C. Measure ultrafiltrate pH and adjust to the pH of the serum (7.4 ± 0.2). • 4. Pipette 190 ul of blank ultrafiltrate into a set of labeled 1.7 mL polypropylene microfuge tubes for 3 of each level. Pipette 10 µL of the appropriate standard stock 50, 200, 1000 µg/mL to make standards 2.5, 10, and 50 µg/mL respectively. Vortex each tube well. One set of the standard samples are mixed 1:1 with 0.2 M acetic acid and injected onto the HPLC (MSTD). These samples are the membrane standards and will be used to compare to the other standards. Pipette 190 ul of ultrafiltrate and spike with 10 ul of whatever solution (e.g. water) the standards are prepared in to make the zero standard. • 5. Pipette 475 µL of blank heated pH 7.4 serum into a set of labeled 1.7 mL polypropylene microfuge tubes for 2 of each (Serum A and Serum B). Pipette 25 µL of the 1000 µg/mL standard stock into each tube, vortex each tube well to make serum standard 50 µg/mL. Remove 100 µL of serum and deproteinate with 200 µL 4% TCA while vortexing to make serum time 0 (serum 50, T0). Place serum tubes in a shaking water bath at 37 °C for 10 minutes. Pipet 100 µL of serum out and deproteinate with 200 µL 4% TCA, to make serum time 10 min (serum 50, T10). Pipet 200 ul serum standard 50 µg/mL into an ultrafiltration device, which is not treated with TCA, to determine free drug in samples (Rat Serum 50). • 6. Transfer serum and standard samples to labeled Amicon Centrifree Micropartition filters, and centrifuge: 1900 g, 25 °C for 10 minutes. The extracted serum samples (T0 and T 10) are spun down and supernatant is loaded into HPLC vials. • 7. 100 µL of ultrafiltrate sample and 100 µL of 0.2 M acetic acid were mixed together to stabilize the compound in ultrafiltrate. • 8. Transfer entire stabilized ultrafiltrate solution to a labeled autoinjector HPLC vial cap with Teflon septa, and inject on HPLC.
Peak height or area is used in a weighted linear regression.
High levels of binding to human serum proteins limits the concentration of compound available for antibacterial activity in the body.

[2] = test system: S. aureus ATCC 13709 (Smith diffuse); experiment: Murine model for lethal bacteremic peritonitis (septicemia); type: in vivo, mice; conditions: for Efficacy in murine septicemia %survival: subcutaneously at 0 and 2 hrs post-challenge
Protocol: 10 mice/group were injected intraperitoneally with 2.98x10^7 cfu S. aureus ATCC 13709 (Smith diffuse) and treated at 0 and 2hrs post-challenge with serial two-fold doses of new cephalosporin antibiotic, imipenem and vancomycin subcutaneously in order to determine the ED50. Male Swiss-Webster mice weighing originally 24.2 - 26.1 g were obtained from Charles Rivers Labs, Hollister, CA. Mice were housed 10 per cage and given free access to water and mouse chow.
Staphylococcus aureus ATCC 13709 (Smith diffuse) was grown overnight at 37 °C in Brain-heart Infusion broth (BHIB). The following morning, it was subcultured to fresh BHIB and incubated for 4-5h at 37 °C. The log-phase growth cells were washed once with physiological saline and adjusted to the desired concentration by correlation of absorbency at OD 600 nm with predetermined plate counts (NCCLS, 1994). The cell suspension was mixed with an equal volume of sterile 14% hog-gastric mucin (2). Inoculum was kept in an ice bath until used (<1h).
Mice were challenged via an injection of 0.5 mL bacterial suspension intraperitoneally. The bacterial challenge was 2.98 x 10^7 cfu/mouse.
Imipenem (Primaxin IV; Lot 7294A), vancomycin (Vancocin; Lot 8MU60W), and new cephalosporin antibiotic were prepared by serial two-fold dilutions to concentrations of 0.078 - 0.005 mg/mL, 1.2 - 0.075 mg/mL, 0.3 - 0.02 mg/mL, 0.3 - 0.02 mg/mL and 0.3 - 0.02 mg/mL respectively in sterile water (1). All antibiotics were administered subcutaneously in 0.1 mL volumes at 0 and 2 hours post-challenge. Concentrations of all compounds are based on the weight of the bioactive ingredients.
The 50% effective dose (ED50) was calculated by the probit method (3) utilizing a program entitled Probit (Nycomed-Salutar).

E. coli ATCC25992 = experiment: Broth microdilution MIC (NCCLS); type: cell-based; conditions: Escherichia coli, Mueller-Hinton Broth, 24 h at 35 °C
Protocol: (§1) Compounds were evaluated for antimicrobial activity against a panel of bacterial strains using a broth microdilution assay performed as recommended by the NCCLS (1). The minimum inhibitory concentration (MIC) was defined as the lowest concentration of drug which prevented the growth of the bacteria. The following 16 organisms constituted the primary panel of evaluation:
(§2) For this primary panel, the assay was performed in Mueller-Hinton Broth (MHB) with a final bacterial inoculum of 5 x 10^5 CFU/mL (from an early-log phase culture) and a final volume of 100 µL. Control drugs, including imipenem, vancomycin, Penicillin G, dicloxacillin (vs. MSSA ATCC29213 only), and new compounds were prepared at a concentration equivalent to 2-fold the desired final concentration. Dilution of compounds were prepared directly in the plates by serial 2-fold dilution using a multichannel pipette. Positive and negative growth control were included in each plate.
(§3) The bacterial inocula were prepared as follows. For each strain one isolated colony was used to inoculate a volume of 8 mL of Mueller-Hinton broth and these cultures were incubated overnight (20h) at 35 °C in a shaking incubator. At the exception of Enterococcus strains, culture were then diluted 1:10 and allowed to grow for an additional one hour at 35 °C in a shaking incubator. The inocula were prepared by diluting the early log-phase (1h) cultures 1:1000 with fresh Mueller-Hinton broth. E. faecium and E. faecalis were prepared by diluting overnight cultures 1:333 and 1:666, respectively, with fresh Mueller-Hinton broth . A volume of 50 µL of the inocula was added to each well. […] The exact inocula were determined by applying […] of 10-fold serial dilution of the bacterial suspensions on TSA. After overnight incubation at 35 °C, colony forming units were manually counted.
(§4) Microtiter plates were incubated during 24 h at 35 °C and were read using a microtiterplate reader (Molecular Devices) at 650 nm as well as by visual observation using a microtiterplate reading mirror.

E. faecalis ATCC 29212 = experiment: Broth microdilution MIC (NCCLS); type: cell-based; conditions: Enterococcus faecalis, ATCC29212, Mueller-Hinton Broth, 24 h at 35 °C
Protocol: as §1, §2, §3, §4

E. faecalis VanB (Van^R) = experiment: Broth microdilution MIC (NCCLS); type: cell-based; conditions: Enterococcus faecalis, Mueller-Hinton Broth, 24 h at 35 °C
Protocol: as §1, §2, §3, §4

E. faecium A491 (Amp^R) = experiment: Broth microdilution MIC (NCCLS); type: cell-based; conditions: Enterococcus faecium, Mueller-Hinton Broth, 24 h at 35 °C
Protocol: as §1, §2, §3, §4

E. faecium ATCC 35667 = experiment: Broth microdilution MIC (NCCLS); type: cell-based; conditions: Enterococcus faecium, ATCC35667, Mueller-Hinton Broth, 24 h at 35 °C
Protocol: as §1, §2, §3, §4

E. faecium VanA (Van^R) = experiment: Broth microdilution MIC (NCCLS); type: cell-based; conditions: Enterococcus faecium, Mueller-Hinton Broth, 24 h at 35 °C
Protocol: as §1, §2, §3, §4

P. aeruginosa ATCC 27853 = experiment: Broth microdilution MIC (NCCLS); type: cell-based; conditions: Pseudomonas aeruginosa, ATCC27853, Mueller-Hinton Broth, 24 h at 35 °C
Protocol: as §1, §2, §3, §4

[3] = test system: S. aureus 76 (Meth^R)(lac^+); experiment: Broth microdilution MIC (NCCLS); type: cell-based; conditions: Staphylococcus aureus, Mueller-Hinton Broth, 24 h at 35 °C
Protocol: as §1, §2, §3, §4

S. aureus ATCC 29213 = experiment: Broth microdilution MIC (NCCLS); type: cell-based; conditions: Staphylococcus aureus, ATCC29213, Mueller-Hinton Broth, 24 h at 35 °C
Protocol: as §1, §2, §3, §4

[4] = test system: S. aureus ATCC 33593 (Meth^R); experiment: Broth microdilution MIC (NCCLS); type: cell-based; conditions: Staphylococcus aureus, ATCC33593, Mueller-Hinton Broth, 24 h at 35 °C
Protocol: as §1, §2, §3, §4

[5] = test system: S. aureus PC1 (Meth^S)(lac^+); experiment: Broth microdilution MIC (NCCLS); type: cell-based; conditions: Staphylococcus aureus; S. aureus PC1 (Meth^S)(lac^+); Mueller-Hinton Broth, 24 h at 35 °C; read-out: MIC
Protocol: as §1, §2, §3, §4

[6] = test system: S. aureus Spain #356 (Meth^R); experiment: Broth microdilution MIC (NCCLS); type: cell-based; conditions: Staphylococcus aureus, Mueller-Hinton Broth, 24 h at 35 °C
Protocol: as §1, §2, §3, §4

[7] = test system: S. haemolyticus 05 (Meth^R); experiment: Broth microdilution MIC (NCCLS); type: cell-based; conditions: Staphylococcus haemolyticus, Mueller-Hinton Broth, 24 h at 35 °C
Protocol: as §1, §2, §3, §4

[8] = In vitro stability of compounds in rat serum; type: in vitro ADME; conditions: compared with other 7-acylamino-3-heteroarylthio-3-cephem carboxylic acids
Protocol: In general, compounds from the class of 7-acylamino-3-heteroarylthio-3-cephem carboxylic acids have higher chemical reactivity and lower stability towards chemical or enzymatic decomposition than most typical cephalosporins. […] Results shown in Table 2 represent percentage loss of the initial amount of cephalosporin compound upon 60 min incubation in rat serum.
Procedure for measuring degree of degradation of cephalosporin compounds in rat serum was as follows:
Fresh control rat serum (heparinized and stored frozen) is preincubated at 37 °C for 15 min in a shaking water bath. pH is measured using test strips. 25 µL of a 2 mg/mL solution cephalosporin compound (in water) of is then added to each matrix to make 1000 µL. Solutions were incubated at 37 °C. 100ul of solution was taken out at time = 0, 15, 30, and 60 min post dose and added 200 µL 4% trichloroacetic acid, vortexed, and centrifuged for 10 min at 14,000 rpm in an Eppendorfmicrocentrifuge. 25 µL of each supernatant was injected onto HPLC. Experiment was repeated using 25 µL of a 0.2 mg/mL cephalosporin compound. Degradation is measured as the percentage of HPLC peak area at time t relative to peak area at time 0.
HPLC conditions: Beckman Ultrasphere C18 column. 5u. 4.6mm x 25cm. 1 mL/min of 95% 0.1 M ammonium acetate, pH 6, 5% ACN going to 75% buffer/organic over 20min. UV monitored at 254 and 280 nm.

SMILES	fraction unbound [1]	Efficacy in murine septicemia %survival ([2]; Dose 5 mg/kg)	Efficacy in murine septicemia %survival ([2]; Dose 10 mg/kg)	ED50 ([2]; Staphylococcus aureus, ATCC13709, sc, read-out: Efficacy in murine septicemia ED50) [mg/kg]	MIC (E. coli ATCC25992) [µg/mL]	MIC (E. faecalis ATCC 29212) [µg/mL]	MIC (E. faecalis VanB (Van^R)) [µg/mL]	MIC (E. faecium A491 (Amp^R)) [µg/mL]	MIC (E. faecium ATCC 35667) [µg/mL]	MIC (E. faecium VanA (Van^R)) [µg/mL]	MIC (P. aeruginosa ATCC 27853) [µg/mL]	MIC [3] [µg/mL]	MIC (S. aureus ATCC 29213) [µg/mL]	MIC [4] [µg/mL]	MIC [5] [µg/mL]	MIC [6] [µg/mL]	MIC [7] [µg/mL]	stability in rat serum (statement in words) [8]
CN[C@H](CC(C)C)C(=O)N[C@H]1C(=O)N[C@@H](CC(N)=O)C(=O)N[C@H]2C(=O)N[C@H]3C(=O)N[C@H](C(=O)N[C@H](C(=O)O)c4cc(O)cc(O)c4-c4cc3ccc4O)[C@H](O)c3ccc(c(Cl)c3)Oc3cc2cc(c3O[C@@H]2O[C@H](CO)[C@@H](O)[C@H](O)[C@H]2O[C@H]2C[C@](C)(N)[C@H](O)[C@H](C)O2)Oc2ccc(cc2Cl)[C@H]1O [Van, Vancomycin]	0.45	5/100%	10/100%	2.41														
NCCSCc1ccncc1SC1=C(C(=O)O)N2C(=O)[C@@H](NC(=O)/C(=N\O)c3nsc(N)n3)[C@H]2SC1 [Cmpd 4, (7R)-7-[(Z)-2-(5-amino-1,2,4-thiadiazol-3-yl)-2-(hydroxyimino)acetamido]-3-[4-(2-aminoethylthiomethyl)pyrid-3-ylthio]-3-cephem-4-carboxylic acid]					4 (≈ 7.03 µM)	2 (≈ 3.52 µM)	2 (≈ 3.52 µM)	> 32	8 (≈ 14.1 µM)	8 (≈ 14.1 µM)	> 32	8 (≈ 14.1 µM)	0.5 (≈ 0.879 µM)	8 (≈ 14.1 µM)	0.5 (≈ 0.879 µM)	16 (≈ 28.1 µM)	16 (≈ 28.1 µM)	improved stability
